Results as given in patent publication US20120034193A1, “TREATMENT OF NEUROTROPHIC FACTOR MEDIATED DISORDERS” (priority 2009, published 2012).

Tests used:
[1] = target: Acetylcholinesterase (Homo sapiens, UniProt P22303); experiment: Enzyme activity assay; type: biochemical; conditions: sarsasapogenin 10 μM
Procedure: (§1) The enzyme activity modulation was investigated using the following method: Sarsasapogenin was incubated with each enzyme plus a specific substrate for each enzyme. After the incubation period the reaction was stopped and the reduction of the specific substrate or the increase in a specific product in the absence and presence of sarsasapogenin was measured and the percent inhibition of the reaction in the presence of sarsasapogenin was calculated. The amount of enzyme used, the incubation conditions, the substrate used and the method of quantification varied depending on each specific assay.

[2] = target: Choline acetyltransferase (Homo sapiens, UniProt P28329); experiment: Enzyme activity assay; type: biochemical; conditions: sarsasapogenin 100 μM
Procedure: as §1

[3] = tested on: Adrenergic α2, non selective; experiment: Receptor binding assay; design: species or system Rat; conditions: sarsasapogenin 10 μM
Procedure: (§2) The receptor binding was investigated using the following method: Sarsasapogenin was incubated with tissue or cell homogenate that expressed the receptor of interest and a known concentration a radiolabelled compound with affinity for the receptor of interest. After the incubation period the non-bound radiolabelled compound was removed and the amount of specific binding was quantified. The amount of specific binding in the presence and absence of sarsasapogenin were compared and the percent inhibition of the binding of the radiolabelled compound by sarsasapogenin was calculated. The source of the receptor, the incubation conditions, the radiolabelled compound used varied depending on each specific assay.

[4] = tested on: Adrenergic β, non selective; experiment: Receptor binding assay; design: species or system Rat; conditions: sarsasapogenin 10 μM
Procedure: as §2

[5] = tested on: Adrenergic α1, non selective; experiment: Receptor binding assay; design: species or system Rat; conditions: sarsasapogenin 10 μM
Procedure: as §2

[6] = tested on: Glutamate; experiment: Receptor binding assay; design: species or system Rat; conditions: sarsasapogenin 10 μM
Procedure: as §2

[7] = tested on: GABAA; experiment: Receptor binding assay; design: species or system Rat; conditions: sarsasapogenin 10 μM
Procedure: as §2

[8] = tested on: Serotonin 5-HT1; experiment: Receptor binding assay; design: species or system Rat; conditions: sarsasapogenin 10 μM
Procedure: as §2

[9] = tested on: Oestrogen; experiment: Receptor binding assay; design: species or system Bovine; conditions: sarsasapogenin 10 μM
Procedure: as §2

[10] = target: T1, Muscarinic M2 (Homo sapiens, UniProt P08172); experiment: Receptor binding assay; conditions: sarsasapogenin 10 μM
T1 construct: host or cells: tissue or cell homogenate, not specified
T1 sequence (P08172 whole entry): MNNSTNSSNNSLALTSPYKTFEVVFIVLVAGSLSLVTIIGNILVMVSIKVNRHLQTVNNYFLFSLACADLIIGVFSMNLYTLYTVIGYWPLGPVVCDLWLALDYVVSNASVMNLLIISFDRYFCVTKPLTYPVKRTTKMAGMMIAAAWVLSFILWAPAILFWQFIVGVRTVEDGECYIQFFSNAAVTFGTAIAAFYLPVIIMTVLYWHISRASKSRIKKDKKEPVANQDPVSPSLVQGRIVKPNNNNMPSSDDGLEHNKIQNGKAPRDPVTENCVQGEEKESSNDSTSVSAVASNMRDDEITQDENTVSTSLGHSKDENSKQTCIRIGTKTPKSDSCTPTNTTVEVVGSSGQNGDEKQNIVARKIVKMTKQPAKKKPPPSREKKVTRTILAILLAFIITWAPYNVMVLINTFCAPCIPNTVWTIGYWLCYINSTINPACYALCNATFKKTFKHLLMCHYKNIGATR
Procedure: as §2

[11] = target: T2, Glucocorticoid (Homo sapiens, UniProt P04150); experiment: Receptor binding assay; conditions: sarsasapogenin 10 μM
T2 construct: host or cells: tissue or cell homogenate, not specified
T2 sequence (P04150 whole entry): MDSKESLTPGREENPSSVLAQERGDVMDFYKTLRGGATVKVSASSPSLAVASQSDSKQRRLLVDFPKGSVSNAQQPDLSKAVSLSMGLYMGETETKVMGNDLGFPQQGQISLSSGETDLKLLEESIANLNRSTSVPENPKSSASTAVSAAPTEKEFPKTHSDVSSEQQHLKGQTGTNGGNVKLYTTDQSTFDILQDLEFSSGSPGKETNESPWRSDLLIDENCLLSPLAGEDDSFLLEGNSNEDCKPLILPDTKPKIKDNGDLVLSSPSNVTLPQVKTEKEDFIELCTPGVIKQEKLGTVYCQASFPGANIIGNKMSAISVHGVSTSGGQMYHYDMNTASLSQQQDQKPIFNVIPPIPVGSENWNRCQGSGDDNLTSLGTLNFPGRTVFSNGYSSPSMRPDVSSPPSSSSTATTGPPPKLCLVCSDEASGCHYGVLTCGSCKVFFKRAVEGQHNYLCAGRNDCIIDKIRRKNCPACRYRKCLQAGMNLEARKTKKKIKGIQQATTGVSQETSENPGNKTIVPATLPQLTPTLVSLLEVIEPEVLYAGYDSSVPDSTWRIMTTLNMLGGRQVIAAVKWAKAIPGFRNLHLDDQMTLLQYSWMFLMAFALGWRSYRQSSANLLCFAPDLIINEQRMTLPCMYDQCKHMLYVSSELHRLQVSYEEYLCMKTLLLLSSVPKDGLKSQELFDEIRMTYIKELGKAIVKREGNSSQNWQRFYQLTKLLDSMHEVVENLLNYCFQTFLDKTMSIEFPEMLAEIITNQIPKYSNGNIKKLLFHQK
Procedure: as §2

[12] = target: T3, Muscarinic M5 (Homo sapiens, UniProt P08912); experiment: Receptor binding assay; conditions: sarsasapogenin 10 μM
T3 construct: host or cells: tissue or cell homogenate, not specified
T3 sequence (P08912 whole entry): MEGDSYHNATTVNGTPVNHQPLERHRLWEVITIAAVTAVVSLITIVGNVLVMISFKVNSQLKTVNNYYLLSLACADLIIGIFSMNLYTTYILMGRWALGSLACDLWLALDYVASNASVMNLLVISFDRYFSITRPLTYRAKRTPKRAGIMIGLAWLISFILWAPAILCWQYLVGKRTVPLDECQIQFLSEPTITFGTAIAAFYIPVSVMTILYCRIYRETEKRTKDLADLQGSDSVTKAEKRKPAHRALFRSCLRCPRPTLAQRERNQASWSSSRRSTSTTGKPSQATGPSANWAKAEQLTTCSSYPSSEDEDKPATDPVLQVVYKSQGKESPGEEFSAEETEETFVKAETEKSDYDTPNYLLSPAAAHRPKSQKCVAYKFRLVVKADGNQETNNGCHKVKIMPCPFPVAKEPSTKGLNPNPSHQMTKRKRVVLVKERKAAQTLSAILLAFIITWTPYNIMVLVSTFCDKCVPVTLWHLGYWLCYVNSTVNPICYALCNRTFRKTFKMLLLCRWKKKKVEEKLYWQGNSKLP
Procedure: as §2

[13] = target: T4, Muscarinic M1 (Homo sapiens, UniProt P11229); experiment: Receptor binding assay; conditions: sarsasapogenin 10 μM
T4 construct: host or cells: tissue or cell homogenate, not specified
T4 sequence (P11229 whole entry): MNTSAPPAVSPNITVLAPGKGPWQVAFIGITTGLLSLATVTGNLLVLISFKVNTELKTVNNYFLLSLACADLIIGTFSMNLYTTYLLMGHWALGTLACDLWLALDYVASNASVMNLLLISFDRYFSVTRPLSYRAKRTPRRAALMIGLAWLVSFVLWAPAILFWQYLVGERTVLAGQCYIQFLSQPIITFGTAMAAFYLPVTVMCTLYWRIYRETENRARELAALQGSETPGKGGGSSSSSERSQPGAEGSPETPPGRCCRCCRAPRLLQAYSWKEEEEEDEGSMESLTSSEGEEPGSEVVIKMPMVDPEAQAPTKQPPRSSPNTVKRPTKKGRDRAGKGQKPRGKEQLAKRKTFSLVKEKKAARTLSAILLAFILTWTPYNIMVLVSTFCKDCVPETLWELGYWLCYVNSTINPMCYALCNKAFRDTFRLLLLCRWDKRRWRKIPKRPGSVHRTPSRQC
Procedure: as §2

[14] = target: T5, Dopamine D1 (Homo sapiens, UniProt P21728); experiment: Receptor binding assay; conditions: sarsasapogenin 10 μM
T5 construct: host or cells: tissue or cell homogenate, not specified
T5 sequence (P21728 whole entry): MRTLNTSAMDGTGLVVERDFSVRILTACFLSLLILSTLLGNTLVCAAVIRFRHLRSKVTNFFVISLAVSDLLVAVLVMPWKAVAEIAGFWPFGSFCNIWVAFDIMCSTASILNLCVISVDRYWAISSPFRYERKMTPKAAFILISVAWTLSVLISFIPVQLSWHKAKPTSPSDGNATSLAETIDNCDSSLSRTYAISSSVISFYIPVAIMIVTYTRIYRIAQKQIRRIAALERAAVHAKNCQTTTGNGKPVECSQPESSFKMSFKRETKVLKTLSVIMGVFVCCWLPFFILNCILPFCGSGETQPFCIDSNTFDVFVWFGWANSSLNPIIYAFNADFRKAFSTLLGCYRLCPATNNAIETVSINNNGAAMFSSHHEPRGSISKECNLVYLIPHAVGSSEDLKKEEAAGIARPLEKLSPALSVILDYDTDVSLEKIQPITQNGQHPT
Procedure: as §2

[15] = target: T6, Muscarinic M3 (Homo sapiens, UniProt P20309); experiment: Receptor binding assay; conditions: sarsasapogenin 10 μM
T6 construct: host or cells: tissue or cell homogenate, not specified
T6 sequence (P20309 whole entry): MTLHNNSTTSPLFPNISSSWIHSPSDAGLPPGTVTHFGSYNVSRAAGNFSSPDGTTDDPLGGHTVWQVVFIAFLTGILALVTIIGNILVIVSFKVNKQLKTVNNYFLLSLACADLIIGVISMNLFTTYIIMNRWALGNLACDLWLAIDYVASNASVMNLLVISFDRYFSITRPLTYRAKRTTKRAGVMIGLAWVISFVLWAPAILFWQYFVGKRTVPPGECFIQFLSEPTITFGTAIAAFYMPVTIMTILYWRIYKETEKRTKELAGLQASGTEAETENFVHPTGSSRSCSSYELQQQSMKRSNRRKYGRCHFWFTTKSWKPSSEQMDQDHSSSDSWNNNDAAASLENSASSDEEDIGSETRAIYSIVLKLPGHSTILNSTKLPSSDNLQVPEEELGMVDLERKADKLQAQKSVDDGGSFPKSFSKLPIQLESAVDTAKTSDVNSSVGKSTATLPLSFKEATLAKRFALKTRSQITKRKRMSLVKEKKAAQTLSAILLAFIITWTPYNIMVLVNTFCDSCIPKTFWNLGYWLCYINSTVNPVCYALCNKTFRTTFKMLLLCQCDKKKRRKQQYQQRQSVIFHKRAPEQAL
Procedure: as §2

[16] = target: Testosterone (Rattus norvegicus, UniProt P15207); experiment: Receptor binding assay; conditions: sarsasapogenin 10 μM
Testosterone, sequence (P15207 whole entry S389L): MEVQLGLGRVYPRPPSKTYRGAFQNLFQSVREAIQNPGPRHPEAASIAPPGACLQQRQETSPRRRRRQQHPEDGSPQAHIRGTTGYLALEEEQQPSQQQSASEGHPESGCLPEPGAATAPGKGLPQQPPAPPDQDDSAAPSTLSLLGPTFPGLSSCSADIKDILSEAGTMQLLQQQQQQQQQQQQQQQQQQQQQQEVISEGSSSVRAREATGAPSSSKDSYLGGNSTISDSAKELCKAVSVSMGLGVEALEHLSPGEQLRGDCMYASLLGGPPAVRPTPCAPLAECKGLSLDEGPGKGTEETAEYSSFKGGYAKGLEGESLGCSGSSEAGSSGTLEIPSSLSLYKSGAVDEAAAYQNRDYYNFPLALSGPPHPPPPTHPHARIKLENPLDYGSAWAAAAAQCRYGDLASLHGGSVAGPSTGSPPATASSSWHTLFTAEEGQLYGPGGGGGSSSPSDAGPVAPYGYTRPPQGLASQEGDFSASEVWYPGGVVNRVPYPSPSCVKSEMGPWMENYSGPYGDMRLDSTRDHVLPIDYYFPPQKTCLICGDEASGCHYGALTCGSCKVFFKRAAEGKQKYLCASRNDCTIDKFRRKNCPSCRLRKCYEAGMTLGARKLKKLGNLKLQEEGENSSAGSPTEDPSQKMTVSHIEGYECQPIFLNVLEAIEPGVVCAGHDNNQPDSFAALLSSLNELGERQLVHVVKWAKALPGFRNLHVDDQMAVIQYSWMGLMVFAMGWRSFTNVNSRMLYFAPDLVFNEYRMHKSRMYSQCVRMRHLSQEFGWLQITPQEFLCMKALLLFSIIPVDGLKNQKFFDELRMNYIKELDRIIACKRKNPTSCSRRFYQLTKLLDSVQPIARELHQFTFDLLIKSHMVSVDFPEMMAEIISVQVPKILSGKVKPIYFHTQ
Procedure: as §2

[17] = target: T7, Muscarinic M4 (Homo sapiens, UniProt P08173); experiment: Receptor binding assay; conditions: sarsasapogenin 10 μM
T7 construct: host or cells: tissue or cell homogenate, not specified
T7 sequence (P08173 whole entry): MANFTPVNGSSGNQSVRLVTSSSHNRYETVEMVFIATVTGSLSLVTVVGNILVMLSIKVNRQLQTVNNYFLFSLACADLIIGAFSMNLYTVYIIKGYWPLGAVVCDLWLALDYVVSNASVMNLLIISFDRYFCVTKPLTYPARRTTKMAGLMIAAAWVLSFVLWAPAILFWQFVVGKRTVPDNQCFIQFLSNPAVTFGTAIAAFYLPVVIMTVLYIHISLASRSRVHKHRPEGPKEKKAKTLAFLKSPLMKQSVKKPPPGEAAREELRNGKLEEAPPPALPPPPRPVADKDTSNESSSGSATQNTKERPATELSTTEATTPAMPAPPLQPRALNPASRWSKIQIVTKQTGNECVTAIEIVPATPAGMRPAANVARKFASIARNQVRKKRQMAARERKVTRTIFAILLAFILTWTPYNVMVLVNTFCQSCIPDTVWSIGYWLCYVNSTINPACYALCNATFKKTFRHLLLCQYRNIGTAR
Procedure: as §2

[18] = tested on: BDNF; experiment: Striatal BDNF in MPTP-lesioned mice (ELISA); type: in vivo, C57b1/6 RJ mice; conditions: smilagenin 10 mg/kg/day oral, 60 days, striatum
Procedure: (§3) Seven-week old male C57b1/6 RJ mice (C57 mice) received daily injections 1-methyl-4-phenyl-1,2,3,6-tetrahydropyridine (MPTP, 25 mg/kg/day, i.p., for 5 consecutive days) and oral administration of smilagenin (10 mg/kg/day) or vehicle (hydroxylpropylmethylcellulose, HPMC 0.5% w/v containing tween-80 0.2% v/v) for 60 days after which time their brains were removed for quantification of striatal levels of GDNF and BDNF using an ELISA and of dopamine transporter (DAT) levels using [I^125]-RTI binding. DAT is a marker for neuronal damage to dopaminergic neurones.

[19] = tested on: Glycine, Strychnine-Sensitive; experiment: Binding assay; design: species or system Rat; conditions: smilagenin 1 μM
[20] = tested on: GDNF; experiment: Striatal GDNF in MPTP-lesioned mice (ELISA); type: in vivo, C57b1/6 RJ mice; conditions: smilagenin 10 mg/kg/day oral, 60 days, striatum
Procedure: as §3

[21] = tested on: dopamine transporter (DAT); experiment: Striatal DAT level in MPTP-lesioned mice ([I^125]-RTI binding), 60 days; type: in vivo, C57b1/6 RJ mice; conditions: 10 mg/kg/day oral, control 74.4, MPTP 23.4
Procedure: as §3

[22] = tested on: BDNF; experiment: BDNF protein in culture medium of rat cortical neurones under basal conditions; type: cell-based; conditions: 10 μM, day 8 to day 12, basal culture; control 3.66 ± 0.05
Procedure: Rat cortical neurones were cultured by modification of a method previously described (Eckenstein and Sofroniew, Journal of Neuroscience, 1983, 3, pp. 2286-2291). On day 8, the culture medium was changed to a medium containing vehicle (DMSO, 0.5%) or smilagenin (10 μM). On day 12 the concentration of BDNF in the culture medium, was measured.

[23] = tested on: GDNF; experiment: Unbound GDNF in the putamen of MPTP-lesioned macaques; type: in vivo, Macaca fascicularis; conditions: smilagenin 20 mg/kg/day p.o., 18 weeks; control 9.52, MPTP 15.33
Procedure: Nineteen female cynomolgus monkeys (Macaca fascicularis, 3.0-4.5 kg, 4-6 years old) were acclimatised to the experimental setting and procedures for 3 months and baseline behaviour was assessed in all animals. Fourteen female macaques received MPTP (0.2 mg/kg/day, s.c.) until marked, stable, parkinsonian symptoms developed. Animals (n=7/group) were randomly assigned to two groups; smilagenin (20 mg/kg/day, p.o.) or vehicle control (HPMC, 0.5% w/v containing Tween 80, 0.2% v/v).
Assessments of parkinsonian disability were made after MPTP administration and following 18 weeks of smilagenin or vehicle administration. Parkinsonian disability was evaluated by post hoc analysis of DVD-recordings by a neurologist blinded to the treatment. At the end of the study the brains were removed and the levels of unbound GDNF and BDNF in the putamen were measured using Multiplex ELISA/Aushon assays. The MPTP treated macaques used in this experiment thus provide an accepted model for Parkinson's disease and similar motor-sensory neurodegenerative conditions.

[24] = tested on: Free Radical Scavenger, SOD Mimetic; experiment: Functional assay; type: biochemical, Bovine; conditions: smilagenin 1 μM
Procedure: as §1
Using the same methods as described above, the binding of smilagenin (1 μM) to the receptors listed in Table 2 below, and the effect of smilagenin on the activity of the enzymes listed in Table 2 below, were investigated.

With `C[C@H]1CC[C@@]2(OC1)O[C@H]1C[C@H]3[C@@H]4CC[C@@H]5C[C@@H](O)CC[C@]5(C)[C@H]4CC[C@]3(C)[C@H]1[C@@H]2C` [Sarsasapogenin, sarsasapogenin] the “Effect (%)” value [1] was “NS (NS = No significant response. Significance was taken as ≧30% stimulation or inhibition)”, the “Effect (%)” value [2] was “NS (NS = No significant response. Significance was taken as ≧30% stimulation or inhibition)” and the “Effect (%)” value [3] was “NS (NS = No significant response. Significance was taken as ≧30% stimulation or inhibition)”. For the same compound, the “Effect (%)” value [4] was “NS (NS = No significant response. Significance was taken as ≧30% stimulation or inhibition)”, the “Effect (%)” value [5] was “NS (NS = No significant response. Significance was taken as ≧30% stimulation or inhibition)” and the “Effect (%)” value [6] was “NS (NS = No significant response. Significance was taken as ≧30% stimulation or inhibition)”. The “Effect (%)” value [7] was “NS (NS = No significant response. Significance was taken as ≧30% stimulation or inhibition)”, the “Effect (%)” value [8] was “NS (NS = No significant response. Significance was taken as ≧30% stimulation or inhibition)” and the “Effect (%)” value [9] was “NS (NS = No significant response. Significance was taken as ≧30% stimulation or inhibition)”. The “Effect (%)” value [10] was “NS (NS = No significant response. Significance was taken as ≧30% stimulation or inhibition)”, the “Effect (%)” value [11] was “NS (NS = No significant response. Significance was taken as ≧30% stimulation or inhibition)” and the “Effect (%)” value [12] was “NS (NS = No significant response. Significance was taken as ≧30% stimulation or inhibition)”. For the same compound, the “Effect (%)” value [13] was “NS (NS = No significant response. Significance was taken as ≧30% stimulation or inhibition)”, the “Effect (%)” value [14] was “NS (NS = No significant response. Significance was taken as ≧30% stimulation or inhibition)” and the “Effect (%)” value [15] was “NS (NS = No significant response. Significance was taken as ≧30% stimulation or inhibition)”. The “Effect (%)” value [16] was “NS (NS = No significant response. Significance was taken as ≧30% stimulation or inhibition)” and the “Effect (%)” value [17] was “NS (NS = No significant response. Significance was taken as ≧30% stimulation or inhibition)”.

With `C[C@@H]1CC[C@@]2(OC1)O[C@H]1C[C@H]3[C@@H]4CC[C@@H]5C[C@@H](O)CC[C@]5(C)[C@H]4CC[C@]3(C)[C@H]1[C@@H]2C` [Smilagenin, smilagenin] the “BDNF (% increase above MPTP mice)” value [18] was 164 ± 53 %, the “BDNF (pg/mg tissue)” value [18] was 46.91 ± 9.97 pg/mg tissue and the “Effect (%)” value [19] was “NS (NS = No significant response. Significance was taken as ≧30% stimulation or inhibition)”. The “GDNF (% increase above MPTP mice)” value [20] was 372 ± 92 %, the “GDNF (pg/mg tissue)” value [20] was 275.31 ± 59.62 pg/mg tissue and the “DAT level ([I^125]-RTI binding in the striatum; nCi/g protein)” value [21] was 69.7 ± 8.8 nCi/g protein. The “BDNF concentration” value [22] was 3.67 ± 0.05 pg/mL, the “Mean ± s.e.mean of unbound GDNF level in the putamen (pg/mg protein)” value [23] was 5.09 ± 1.35 pg/mg protein and the “Effect (%)” value [24] was “NS (NS = No significant response. Significance was taken as ≧30% stimulation or inhibition)”.
